Experimental findings from US20240092756A1, “METHODS AND COMPOSITION FOR KRAS MODIFICATIONS” (2692372 ONTARIO, INC., priority 2020, published 2024) are described below.

For one test, the target named is KRAS G12C Lite (Homo sapiens, UniProt P01116, C118S/C51S/C80S/G12C/S136P/S39C). The test is described as follows: Differential scanning fluorimetry, KRAS G12C Lite. The class given is binding. Details: key: Y: protein destabilized; N: protein not destabilized. As to conditions: 37° C. 5 hours incubation. The procedure:
(§1) KRas proteins at 0.05 mg/ml in buffer Hepes, 147 mM NaCl, 2% glycerol, 5 mM MgCl2, 1 mM EDTA, 10 μM GDP, pH 8.0 were incubated in the presence desired concentration of compounds (5% DMSO final concentration) at 37° C. for 5 hours. After incubation, Sypro Oange to a final concentration of 5× was added to each sample. 20 μl aliquots of samples were transferred PCR tubes, sealed with caps, and run in a BioRad CFX96 RTPCR thermocycler. In the instrument, the samples were heated at a rate of 1° C./min from 25 to 90 degrees. Fluorescence readings were taken every 1 degree. The data generated was exported and analyzed using GraphPad-Prism software. The denaturation curves were fit using a Boltzmann sigmoidal equation to calculate melting temperatures (Tm).
Background: Differential scanning fluorimetry follows unfolding on heating by fluorescence.

For test [1], the target named is T1, KRAS G12C (Homo sapiens, UniProt P01116, G12C). The test is described as follows: SOS1-catalyzed KRAS coupled nucleotide exchange assay (Alpha technology). Details: His; key: A: KRAS G12C bound and modulated. As to conditions: inhibition of SOS1 mediated KRAS nucleotide exchange. The class given is biochemical. The method, boiled down:
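Alpha readout of c-RAF RBD binding to GTP-bound KRAS, normalized to DMSO. Method I: 20 nM GDP-KRAS G12C/C118A with compound 5 min, then 1.25 mM GTP + 500 nM SOS-1 30 min, pH 7.4 HEPES/MgCl2 buffer, 50 nM RBD. Method II: 50 nM GDP-KRAS G12C with compound 2 h, 1 mM GTP + 500 nM SOS-1 30 min, 2.5 nM GST-RBD; RT throughout.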

In test [2] the target is T1, KRAS G12C. The experiment in a line: Differential scanning fluorimetry, KRAS G12C. The class given is binding. Details: purchased; key: Y: protein destabilized; N: protein not destabilized. Conditions: 37° C. 5 hours incubation. The procedure: as §1

In the case of `Cc1ccnc(C(C)C)c1-n1c(=O)nc(NC2CN(S(=O)(=O)c3c(F)c(F)c(F)c(F)c3C(F)(F)F)C2)c2cc(F)c(-c3c(O)cccc3F)nc21` [Compound 15A, 6-fluoro-7-(2-fluoro-6-hydroxyphenyl)-1-(2-isopropyl-4-methylpyridin-3-yl)-4-((1-((2,3,4,5-tetrafluoro-6-(trifluoromethyl)phenyl)sulfonyl)azetidin-3-yl)amino)pyrido[2,3-d]pyrimidin-2(1H)-one], the “KRAS G12C Lite DSF ΔTm” value at KRAS G12C Lite is given as “Y”. Besides, the “KRAS-SOS1 Nucleotide Exchange” value at KRAS G12C [1] is on record as “A”. Moreover, the “KRAS G12C DSF ΔTm” value on KRAS G12C [2] is recorded as “Y”.
On to `Cc1ccnc(C(C)C)c1-n1c(=O)nc(NC2CN(S(=O)(=O)c3c(F)c(F)c(F)c(F)c3C(F)(F)F)C2)c2cc(F)c(Cl)nc21` [Compound 14A, 7-chloro-6-fluoro-1-(2-isopropyl-4-methylpyridin-3-yl)-4-((1-((2,3,4,5-tetrafluoro-6-(trifluoromethyl)phenyl)sulfonyl)azetidin-3-yl)amino)pyrido[2,3-d]pyrimidin-2(1H)-one], for which the “KRAS G12C Lite DSF ΔTm” value on KRAS G12C Lite is on record as “Y”. In addition, the “KRAS-SOS1 Nucleotide Exchange” value on KRAS G12C [1] is on record as “A”. On KRAS G12C [2], the “KRAS G12C DSF ΔTm” value was “Y”.
